Results taken from patent publication US20170087138A1 (priority 2007, published 2017).
Structures can show the parent of a compound that is named as a salt.

Key:
[1] = Solubility of salts in water, pH of the saturated solution and identity of the precipitate; assay type: physicochemical; conditions: for solubility (in words): table 3; for Precipitate: whether precipitate isolated after solubility determination is identical to the compound dissolved; for Resulting pH: pH in the saturated solution of the salt
Procedure: If the acid is a liquid it was added neat otherwise it was dissolved in the given solvent prior to addition. After mixing and precipitation stirring was continued overnight and the precipitate collected by filtration. Before drying in vacuum at 30° C. a small reference sample was withdrawn and dried at room temperature without vacuum. This procedure was included in order to test for solvates.

C57/B6 mice = assay: Formalin model of neuropathic pain; assay type: in vivo; conditions: in words
Procedure: The irritation caused by the formalin injection elicits a characteristic biphasic behavioural response, as quantified by the amount of time spent licking the injured paw. The first phase (˜0-10 minutes) represents direct chemical irritation and nociception, whereas the second (˜20-30 minutes) is thought to represent pain of neuropathic origin. The two phases are separated by a quiescent period in which behaviour returns to normal. Measuring the amount of time spent licking the injured paw in the two phases assesses the effectiveness of test compounds to reduce the painful stimuli. Eight C57/B6 mice (ca. 25 g) were tested per group. Table 4 below show the amount of time spent licking the injured paw in the two phases, i.e. 0-5 minutes and 20-30 minutes post formalin injection. The amount of compound administered is calculated as the free base.

healthy volunteers = assay: Multiple dose clinical trial, vital signs including blood pressure; assay type: in vivo, human; conditions: up to 30 mg/day
Description: 49 subjects received active compound and 21 subjects received placebo.

[2] = biological target: T1, human-homomeric 5-HT3A receptors (Homo sapiens, UniProt P46098); assay: 5-HT3A receptor antagonism, voltage clamp in Xenopus oocytes; assay type: cell-based; conditions: higher concentrations (100-100000 nM)
T1 sequence (P46098 24-478): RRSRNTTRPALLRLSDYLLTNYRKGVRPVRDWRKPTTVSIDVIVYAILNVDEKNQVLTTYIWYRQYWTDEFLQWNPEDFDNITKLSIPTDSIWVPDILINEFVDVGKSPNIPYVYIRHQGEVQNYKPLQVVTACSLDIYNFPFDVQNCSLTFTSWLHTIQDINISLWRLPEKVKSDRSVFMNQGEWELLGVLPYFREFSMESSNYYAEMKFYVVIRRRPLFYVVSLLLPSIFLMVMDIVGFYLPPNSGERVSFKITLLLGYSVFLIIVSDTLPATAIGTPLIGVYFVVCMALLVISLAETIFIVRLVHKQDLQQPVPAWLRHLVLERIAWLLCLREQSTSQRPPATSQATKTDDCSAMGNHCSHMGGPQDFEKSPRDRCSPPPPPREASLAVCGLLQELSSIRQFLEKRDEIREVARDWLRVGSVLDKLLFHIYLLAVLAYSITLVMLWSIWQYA
Procedure: The experiments were carried out as follows. […] Oocytes avoid of the follicle layer were selected and incubated for 24 hours in Modified Barth's Saline buffer [88 mM NaCl, 1 mM KCl, 15 mM HEPES, 2.4 mM NaHCO3, 0.41 mM CaCl2, 0.82 mM MgSO4, 0.3 mM Ca(NO3)2] supplemented with 2 mM sodium pyruvate, 0.1 U/l penicillin and 0.1 μg/l streptomycin. Stage IV-IV oocytes were identified and injected with 12-48 nl of nuclease free water containing 14-50 pg of cRNA coding for human 5-HT3A receptors and incubated at 18° C. until they were used for electrophysiological recordings (1-7 days after injection). […] Cells were impaled with agar plugged 0.5-1 MΩ electrodes containing 3 M KCl and voltage clamped at −90 mV by a GeneClamp 500B amplifier. The oocytes were continuously perfused with Ringer buffer and the drugs were applied in the perfusate.

[3] = test system: extracellular levels of acetylcholine in the prefrontal cortex and ventral hippocampus; assay: Microdialysis: extracellular acetylcholine levels in freely-moving rats; assay type: in vivo; conditions: rat, FIGS. 10A and 10B
Procedure: The experiment was designed to evaluate the effects of compounds of the present invention on extracellular levels of acetylcholine in the prefrontal cortex and ventral hippocampus of freely-moving rats.
Male Sprague-Dawley rats, initially weighing 275-300 g, were used. The animals were housed under a 12-hr light/dark cycle under controlled conditions for regular in-door temperature (21±2° C.) and humidity (55±5%) with food and tap water available ad libitum.
Rats were anaesthetised with hypnorm/dormicum (2 ml/kg) and intracerebral guide cannulas (CMA/12) were stereotaxically implanted into the hippocampus, aiming to position the dialysis probe tip in the ventral hippocampus (co-ordinates: 5.6 mm posterior to bregma, lateral −5.0 mm, 7.0 mm ventral to dura or in the frontal cortex (co-ordinates: 3.2 mm anterior to bregma; lateral, 0.8 mm; 4.0 mm ventral to dura). Anchor screws and acrylic cement were used for fixation of the guide cannulas. The body temperature of the animals was monitored by rectal probe and maintained at 37° C. The rats were allowed to recover from surgery for 2 days, housed singly in cages. On the day of the experiment a microdialysis probe (CMA/12, 0.5 mm diameter, 3 mm length) was inserted through the guide cannula.
The probes were connected via a dual channel swivel to a microinjection pump. […]

Cc1ccc(Sc2ccccc2C2CCNCC2)cc1 (racemic)
solubility (in words) [1]: exceptionally high solubility
Precipitate [1]: =start (after

Cc1ccc(Sc2ccccc2C2CCNCC2)cc1 [Adipicacid, 1,6-hexanedioic acid 2:1]
Precipitate [1]: =start

Cc1ccc(Sc2ccccc2C2CCNCC2)cc1 [Citric acid 2:1]
Precipitate [1]: =Start

Cc1ccc(Sc2ccccc2C2CCNCC2)cc1 [Compound I, 4-[2-(4-methylphenylsulfanyl)-phenyl]piperidine]
effect in the first phase (direct chemical irritation and nociception) (C57/B6 mice): little effect
time spent licking paws in the second phase (C57/B6 mice): clear and dose dependent decrease
blood pressure (healthy volunteers): only at the highest dose were there signs of elevated blood pressure
maximal current, of the maximal current elicited by 5-HT itself [2]: 70-80%
extra cellular level of acetylcholine in the prefrontal cortex and the hippocampus [3]: increase

Cc1ccc(Sc2ccccc2C2CCNCC2)cc1 [D-tartaric acid, D-2,3-dihydroxy butanedioic acid 1:1]
Precipitate [1]: Hydrate

Cc1ccc(Sc2ccccc2C2CCNCC2)cc1 [Fumaric acid 1:1]
Precipitate [1]: =start

Cc1ccc(Sc2ccccc2C2CCNCC2)cc1 [Glutamic acid 1:1]
solubility (in words) [1]: exceptionally high solubility

Cc1ccc(Sc2ccccc2C2CCNCC2)cc1 [Glutaric acid, 1,5-pentanedioic acid 1:1]
solubility (in words) [1]: exceptionally high solubility
Precipitate [1]: =start

Cc1ccc(Sc2ccccc2C2CCNCC2)cc1 [HBr, 4-(2-(4-tolylsulfanyl)phenyl)-piperidin hydrobromide]
Resulting pH ([1]; hydrobromide): 7.0
Precipitate ([1]; hydrobromide): =Start

Cc1ccc(Sc2ccccc2C2CCNCC2)cc1 [HCl]
Precipitate [1]: =Start

Cc1ccc(Sc2ccccc2C2CCNCC2)cc1 [Oxalic acid 1:1]
Precipitate [1]: =Start

Cc1ccc(Sc2ccccc2C2CCNCC2)cc1 [Phosphoric acid 1:1]
Resulting pH [1]: 2.0

Cc1ccc(Sc2ccccc2C2CCNCC2)cc1 [Sebacoinic acid, 1,8-octanedioic acid 2:1]
Precipitate [1]: =Start
